Laboratory results taken from patent US11484032B2, “Compositions for inhibition of insect sensing” (Vanderbilt University, priority 2011, dated 2022).

Experiments:
[1] = system: An. gambiae early 4th instar larvae; experiment: Larval mosquito movement assay (Daniovision-Ethovision); assay type: in vivo, Anopheles gambiae
Experimental: Next, the agonist activity of the VUAA compound class was tested to establish the involvement of AgORs in mediating larval ortho and klinokinesis in response to a series of semiochemicals using larval-stage An. gambiae mosquitoes. Mosquito larvae are aquatic, thus compounds can be delivered to individual early 4th instar larvae regardless of volatility. The assay currently utilizes 6-well plates and the Daniovision-Ethovision platform (Noldus Inc.) to simultaneously record and analyze 6 larvae, thereby providing modest rates of throughput and a high degree of reproducibility. In these assays, larval movements are automatically quantified over 5-minute period and control larvae consistently move the same number of times in the presence or absence of 0.1% DMSO (p=0.80, n=31) (FIGS. 42-43). Furthermore, the effects of the widely-used synthetic insect repellent N, N-diethyl-meta-toluamide (DEET) was tested and DEET was also observed to increase larval movements at and above a threshold concentration of 5×10^−4M (p=0.013, n=27) (FIGS. 42-43).

AgORco = target: T1, AgORco (Anopheles gambiae, UniProt Q7QCC7); experiment: Single-channel recording, outside-out patches from AgORco-expressing HEK293 cells; assay type: biochemical
T1 construct: expressed in transfected cells
T1 sequence (Q7QCC7 1-478): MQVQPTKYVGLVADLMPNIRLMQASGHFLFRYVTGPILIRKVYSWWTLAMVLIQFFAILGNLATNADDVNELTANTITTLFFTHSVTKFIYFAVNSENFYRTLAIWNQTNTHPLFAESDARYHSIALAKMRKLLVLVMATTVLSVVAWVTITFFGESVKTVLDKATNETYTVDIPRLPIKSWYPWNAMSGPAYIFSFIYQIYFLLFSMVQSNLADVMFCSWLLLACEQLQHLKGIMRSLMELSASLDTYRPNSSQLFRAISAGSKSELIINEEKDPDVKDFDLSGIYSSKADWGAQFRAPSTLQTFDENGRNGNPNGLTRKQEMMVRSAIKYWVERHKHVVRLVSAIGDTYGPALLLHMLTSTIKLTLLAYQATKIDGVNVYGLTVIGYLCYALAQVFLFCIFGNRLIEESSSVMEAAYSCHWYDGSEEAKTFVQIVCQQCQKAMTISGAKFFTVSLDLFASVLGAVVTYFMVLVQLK
Experimental: Currents from OR-expressing HEK293 cells were amplified with an Axopatch 200b Amplifier (Axon Instruments) and digitized through a Digidata 1322A (Axon Instruments). Electrophysiological data was recorded and analyzed using pCLAMP 10 (Axon Instruments). Electrodes were fabricated from quartz tubing (Sutter Instruments) and pulled to 4-6 MiΩ for whole cell recording. Electrodes were filled with internal solution (120 mM KCl, 30 mM D-glucose, 10 mM HEPES, 2 mM MgCl2, 1.1 mM EGTA, and 0.1 CaCl2) (pH 7.35, 280 mOsm). External (bath) solution contained 130 mM NaCl, 34 mM D-glucose, 10 mM HEPES, 1.5 mM CaCl2), 1.3 mM KH2PO4, and 0.5 MgSO4 (pH 7.35, 300 mOsm). Compounds were diluted in external solution and locally perfused to the recording cell using Perfusion Pencil (Automate Scientific) and controlled by a ValveLink 8.2 controller (Automate Scientific). Whole cell recordings were sampled at 10 kHz and filtered at 5 kHz. Outside-out patches were obtained using 10-15MΩ electrodes pulled from standard glass capillaries (World Precision Instruments) and fire-polished with an MF-830 micro forge (Narishige). Single channel recordings were sampled at 20 kHz. Recordings were reduced to 1 kHz and low-pass filtered at 500 Hz for display and analysis using QuB (SUNY at Buffalo). […]

[2] = system: AgORco-expressing CpB/C neurons; experiment: Single sensillum recording, capitate peg sensilla, CpB/C neurons; assay type: in vivo, Anopheles gambiae; conditions: compound delivered via glass recording electrode
Experimental: Single sensillum recordings were performed on 4-7 day old, non-bloodfed Anopheles gambiae females maintained on 10% sucrose and a 12/12 light dark cycle. Legs, wings and antennae were removed from cold-anesthetized females that were then restrained on double-stick tape with thread. A glass reference electrode filled with Sensillar lymph ringers (SLR)(Xu, 2005) was placed in the eye and the recording electrode filled with DMSO or VUAA1 diluted in SLR was used to puncture sensilla at their base. Responses were recorded and digitized using a Syntech IDAC-4 and analyzed with AutoSpike software (Syntech). New glass recording pipettes were used for every recording. Data was sampled at 12 kHz.
The inventors next performed single unit, extracellular electrophysiological recordings on adult female An. gambiae to determine whether VUAA1 could activate AgORco-expressing odorant receptor neurons (ORNs) in vivo. ORNs, which express AgORco and a conventional OR are enclosed within the hair-like sensilla present on olfactory tissues. […] CpA is clearly distinguished from CpB/C by its large action potential amplitude. The action potential amplitudes of CpB and CpC are much smaller and in some preparations indistinguishable from each other; as a result, the spike activity of CpB and CpC neurons were binned for data analysis. […]

[3] = system: Un-transfected HEK293 cells; experiment: Whole-cell patch clamp, un-transfected HEK293 control cells; assay type: cell-based, human
Experimental: Currents from OR-expressing HEK293 cells were amplified with an Axopatch 200b Amplifier (Axon Instruments) and digitized through a Digidata 1322A (Axon Instruments). Electrophysiological data was recorded and analyzed using pCLAMP 10 (Axon Instruments). Electrodes were fabricated from quartz tubing (Sutter Instruments) and pulled to 4-6 MiΩ for whole cell recording. Electrodes were filled with internal solution (120 mM KCl, 30 mM D-glucose, 10 mM HEPES, 2 mM MgCl2, 1.1 mM EGTA, and 0.1 CaCl2) (pH 7.35, 280 mOsm). External (bath) solution contained 130 mM NaCl, 34 mM D-glucose, 10 mM HEPES, 1.5 mM CaCl2), 1.3 mM KH2PO4, and 0.5 MgSO4 (pH 7.35, 300 mOsm). Compounds were diluted in external solution and locally perfused to the recording cell using Perfusion Pencil (Automate Scientific) and controlled by a ValveLink 8.2 controller (Automate Scientific). Whole cell recordings were sampled at 10 kHz and filtered at 5 kHz. Outside-out patches were obtained using 10-15MΩ electrodes pulled from standard glass capillaries (World Precision Instruments) and fire-polished with an MF-830 micro forge (Narishige). Single channel recordings were sampled at 20 kHz. Recordings were reduced to 1 kHz and low-pass filtered at 500 Hz for display and analysis using QuB (SUNY at Buffalo).

Question: Which results are given for `CCc1ccc(NC(=O)CSc2nnc(-c3cccnc3)n2CC)cc1` [VUAA1, 2-((4-ethyl-5-(pyridin-3-yl)-4H-1,2,4-triazol-3-yl)thio)-N-(4-ethylphenyl)acetamide]?
Answer: larval movements at higher concentration ([1]; 5×10^−5M): larval movements were observed to decrease; larval response in AgOrco siRNA-treated larvae ([1]; AgOrco siRNAs injected 48 h before, vs buffer-injected control): no longer responsive; increase over the response threshold of DEET ([1]; in vivo): 5 orders of magnitude; threshold concentration for increased larval movement ([1]; movements over 5-minute period): 5 nM; average unitary current of AgORco (AgORco; VUAA1-evoked, mean±st. dev.): 1.3±0.3 pA; channel opening probability P0 (AgORco; during 5 s application of −4.0 log M VUAA1, patch held at −60 mV): 0.38; spike frequency of CpB/C neurons [2]: increased the spike frequency of CpB/C neurons in a dose-dependent manner; whole-cell current response [3]: did not respond
